In US20140135310A1, “SULPHONAMIDE DERIVATIVES OF ALICYCLIC AMINES FOR THE TREATMENT OF CENTRAL NERVOUS SYSTEM DISEASES” (Adamed Sp. z o.o., priority 2011, published 2014):

Experiments:
[1] = target: dopaminergic receptors D3 (Homo sapiens, UniProt P35462); assay: Radioligand binding assay, dopaminergic D3 receptors; settings: test compound 1×10^−6 M
Procedure, shortened: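 Scintillation read-out. Specific = total − nonspecific (excess cold ligand). Data as % of control specific binding / % inhibition; IC50 by Hill fit; Ki = IC50/(1+L/KD), KD from Scatchard plot.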

[2] = target: T1, 5-HT1A receptor (rat hippocampus) (Rattus norvegicus, UniProt P19327); assay: Radioligand binding assay, serotoninergic 5-HT1A receptors; settings: binding assay result in %, Table 5a;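 also: test compound at 1 µM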
T1 construct: hippocampus; from tissue; host or cells: rat hippocampus
T1 sequence (P19327 1-422): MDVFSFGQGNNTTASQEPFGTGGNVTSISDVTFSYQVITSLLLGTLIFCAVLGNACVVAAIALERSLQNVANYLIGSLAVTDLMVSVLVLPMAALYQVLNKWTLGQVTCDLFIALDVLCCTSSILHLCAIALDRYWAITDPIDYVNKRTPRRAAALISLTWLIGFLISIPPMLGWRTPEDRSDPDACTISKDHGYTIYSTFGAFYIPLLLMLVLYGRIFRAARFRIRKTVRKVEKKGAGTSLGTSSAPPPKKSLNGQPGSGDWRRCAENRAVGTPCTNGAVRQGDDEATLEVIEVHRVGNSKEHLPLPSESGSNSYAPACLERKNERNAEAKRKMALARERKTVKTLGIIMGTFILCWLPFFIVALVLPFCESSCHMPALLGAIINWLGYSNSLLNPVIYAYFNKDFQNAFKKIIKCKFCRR

5-HT2A receptor = target: T2, 5-HT2A receptor (Homo sapiens, UniProt P28223); assay: Radioligand binding assay, serotoninergic 5-HT2A receptors; settings: for inhibition at 1 µM: binding assay result in %, Table 5a; for Ki: read-out: Inhibition constants Ki, 5-HT2A
T2 construct: purchased PerkinElmer
Procedure, shortened: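 Competition curves from scintillation-counted specific binding (total minus binding with excess unlabelled ligand) were Hill-fitted to give IC50, converted to Ki via Cheng-Prusoff using Scatchard-derived Kd.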

5-HT7 receptor = target: T3, 5-HT7 receptor (Homo sapiens, UniProt P34969); assay: Radioligand binding assay, serotoninergic 5-HT7 receptors; settings: binding assay result in %, Table 5a;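 also: test compound at 1 µM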
T3 construct: purchased PerkinElmer
Procedure, shortened: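 Ki values used the Cheng–Prusoff equation, with KD from Scatchard analysis, applied to IC50 from Hill fits of human 5-HT7 radioligand competition curves. Bound radioligand was counted by scintillation, and excess unlabelled ligand set the non-specific binding.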

[3] = tested on: α1 adrenergic receptors (rat cerebral cortex); assay: Radioligand binding assay, adrenergic α1 receptors; settings: test compound 1×10^−6 M
Procedure, shortened: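 Values derive from radioligand displacement, with non-specific binding defined by excess cold ligand and detection by scintillation. Hill-fit IC50s were converted to Ki via Cheng-Prusoff using Scatchard-derived Kd; percent inhibition of control specific binding also reported.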

α2C adrenergic receptors = target: T4, α2C adrenergic receptors (Homo sapiens, UniProt P18825); assay: Radioligand binding assay, adrenergic α2C receptors; settings: test compound 1×10^−6 M
T4 construct: expressed in transfected cells; host or cells: CHO cells
T4 sequence (P18825 1-462): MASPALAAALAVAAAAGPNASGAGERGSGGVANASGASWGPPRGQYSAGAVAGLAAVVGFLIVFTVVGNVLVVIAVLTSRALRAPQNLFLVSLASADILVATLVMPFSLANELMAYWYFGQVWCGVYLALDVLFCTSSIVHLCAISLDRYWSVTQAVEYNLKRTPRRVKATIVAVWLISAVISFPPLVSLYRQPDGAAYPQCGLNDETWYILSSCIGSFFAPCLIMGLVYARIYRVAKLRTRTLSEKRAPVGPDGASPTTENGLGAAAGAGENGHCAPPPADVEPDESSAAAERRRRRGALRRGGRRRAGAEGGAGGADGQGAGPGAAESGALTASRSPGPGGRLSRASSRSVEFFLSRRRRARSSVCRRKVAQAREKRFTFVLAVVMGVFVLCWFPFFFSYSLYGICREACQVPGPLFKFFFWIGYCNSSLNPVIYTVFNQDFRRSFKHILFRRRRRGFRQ
Procedure, shortened: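 Competitive radioligand binding at human α2C receptors, with scintillation counting. Nonspecific binding defined with excess unlabelled ligand; results given as % inhibition of control specific binding. IC50 from Hill-equation fits of competition curves; Ki via Cheng-Prusoff using radioligand concentration and Scatchard-derived KD.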

Chain of dopaminergic receptors D3 (P35462 whole entry): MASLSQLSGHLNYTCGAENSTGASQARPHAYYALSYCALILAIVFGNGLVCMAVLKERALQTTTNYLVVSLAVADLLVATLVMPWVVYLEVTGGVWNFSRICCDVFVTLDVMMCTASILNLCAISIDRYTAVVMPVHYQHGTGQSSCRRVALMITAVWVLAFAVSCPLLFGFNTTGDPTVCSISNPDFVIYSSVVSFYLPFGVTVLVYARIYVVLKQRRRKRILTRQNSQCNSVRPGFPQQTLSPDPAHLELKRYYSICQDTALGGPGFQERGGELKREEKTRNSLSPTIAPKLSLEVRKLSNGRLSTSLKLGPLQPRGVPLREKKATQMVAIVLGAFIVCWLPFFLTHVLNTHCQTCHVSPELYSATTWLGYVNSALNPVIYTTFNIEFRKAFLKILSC
T2 sequence (P28223 whole entry): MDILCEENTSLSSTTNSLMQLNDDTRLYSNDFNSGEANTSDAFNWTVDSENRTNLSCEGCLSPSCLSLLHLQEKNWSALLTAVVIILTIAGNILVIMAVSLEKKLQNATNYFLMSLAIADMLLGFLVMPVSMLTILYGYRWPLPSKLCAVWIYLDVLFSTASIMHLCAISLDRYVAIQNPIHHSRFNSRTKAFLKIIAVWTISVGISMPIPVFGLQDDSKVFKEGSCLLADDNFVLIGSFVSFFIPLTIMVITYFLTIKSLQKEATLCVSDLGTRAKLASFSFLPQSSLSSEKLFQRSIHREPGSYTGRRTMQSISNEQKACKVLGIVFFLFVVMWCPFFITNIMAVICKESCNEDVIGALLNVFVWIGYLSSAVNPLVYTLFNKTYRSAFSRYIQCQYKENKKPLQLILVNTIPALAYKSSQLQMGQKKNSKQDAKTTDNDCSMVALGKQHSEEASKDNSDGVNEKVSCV
T3 sequence (P34969 whole entry): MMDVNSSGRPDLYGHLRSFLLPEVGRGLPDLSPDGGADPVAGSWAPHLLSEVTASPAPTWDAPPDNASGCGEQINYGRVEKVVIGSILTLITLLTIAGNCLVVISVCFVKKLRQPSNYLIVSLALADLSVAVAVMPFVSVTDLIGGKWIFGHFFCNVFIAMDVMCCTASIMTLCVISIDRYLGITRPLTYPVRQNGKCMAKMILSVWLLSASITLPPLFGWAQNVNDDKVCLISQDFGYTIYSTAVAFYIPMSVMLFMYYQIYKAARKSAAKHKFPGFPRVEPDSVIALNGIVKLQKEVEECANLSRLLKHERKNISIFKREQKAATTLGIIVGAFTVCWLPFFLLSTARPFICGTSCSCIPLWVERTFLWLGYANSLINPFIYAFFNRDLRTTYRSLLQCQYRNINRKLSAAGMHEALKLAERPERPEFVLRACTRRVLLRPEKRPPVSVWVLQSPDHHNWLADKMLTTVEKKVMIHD

## Cc1cccc(S(=O)(=O)NC2CCN(CCCc3c[nH]c4ccc(Cl)cc34)C2)c1 (centres unmarked) [Compound 86, N-[1-[3-(5-chloro-1H-indol-3-yl)propyl]pyrrolidin-3-yl]-3-methyl-benzenesulphonamide]
[1]
  inhibition at 1 µM: 97%
[2]
  inhibition at 1 µM: 101%
5-HT2A receptor
  inhibition at 1 µM: 97%
5-HT7 receptor
  inhibition at 1 µM: 98%
[3]
  α1 [%]: 50%
α2C adrenergic receptors
  inhibition at 1 µM: 106%

## CC1(C)Cc2cccc(OCCN3CCC(NS(=O)(=O)c4cccc(O)c4)C3)c2O1 (centres unmarked) [Compound 107, N-[1-[2-[(2,2-Dimethyl-3H-benzofuran-7-yl)oxy]ethyl]pyrrolidin-3-yl]-3-hydroxybenzenesulphonamide]
[1]
  inhibition at 1 µM: 97%
[2]
  inhibition at 1 µM: 100%
5-HT2A receptor
  inhibition at 1 µM: 97%
5-HT7 receptor
  inhibition at 1 µM: 84%
[3]
  α1 [%]: 28%
α2C adrenergic receptors
  inhibition at 1 µM: 77%

## O=S(=O)(NCC1CN(CCCc2noc3cc(F)ccc23)C1)c1ccc2ccccc2c1 [Compound 134, N-[[1-[3-(6-Fluoro-1,2-benzoxazol-3-yl)propyl]azetidin-3-yl]methyl]-naphthalene-2-sulphonamide]
[1]
  inhibition at 1 µM: 80%
[2]
  inhibition at 1 µM: 73%
5-HT2A receptor
  inhibition at 1 µM: 99%
5-HT7 receptor
  inhibition at 1 µM: 95%
[3]
  α1 [%]: 61%
α2C adrenergic receptors
  inhibition at 1 µM: 87%

## O=S(=O)(NCC1CCN(CCOc2cccc3ccccc23)C1)c1ccc2ccccc2c1 (centres unmarked) [Compound 124, N-[[1-[2-(1-Naphthyloxy)ethyl]pyrrolidin-3-yl]methyl]naphthalene-2-sulphonamide]
[1]
  inhibition at 1 µM: 94%
[2]
  inhibition at 1 µM: 99%
5-HT2A receptor
  inhibition at 1 µM: 87%
5-HT7 receptor
  inhibition at 1 µM: 99%
[3]
  α1 [%]: 33%
α2C adrenergic receptors
  inhibition at 1 µM: 95%

## O=S(=O)(NC1CCN(CCOc2cccc3ccccc23)C1)c1ccc2ccccc2c1 (centres unmarked) [Compound 116, N-[1-[2-(1-Naphthyloxy)ethyl]pyrrolidin-3-yl]naphthalene-2-sulphonamide]
[1]
  inhibition at 1 µM: 98%
[2]
  inhibition at 1 µM: 99%
5-HT2A receptor
  inhibition at 1 µM: 96%
5-HT7 receptor
  inhibition at 1 µM: -49%
[3]
  α1 [%]: 23%
α2C adrenergic receptors
  inhibition at 1 µM: 93%

## O=S(=O)(NCC1CN(CCOc2cccc3ccccc23)C1)c1ccc2ccccc2c1 [Compound 122, N-[[1-[2-(1-Naphthyloxy)ethyl]azetidin-3-yl]methyl]naphthalene-2-sulphonamide]
[1]
  inhibition at 1 µM: 100%
[2]
  inhibition at 1 µM: 99%
5-HT2A receptor
  inhibition at 1 µM: 83%
5-HT7 receptor
  inhibition at 1 µM: 100%
[3]
  α1 [%]: 53%
α2C adrenergic receptors
  inhibition at 1 µM: 101%

## O=S(=O)(NCC1CN(CCCc2noc3cc(F)ccc23)C1)c1cccc2ccccc12 [Compound 133, N-[[1-[3-(6-Fluoro-1,2-benzoxazol-3-yl)propyl]azetidin-3-yl]methyl]-naphthalene-1-sulphonamide]
[1]
  inhibition at 1 µM: 74%
[2]
  inhibition at 1 µM: 52%
5-HT2A receptor
  inhibition at 1 µM: 95%
5-HT7 receptor
  inhibition at 1 µM: 97%
[3]
  α1 [%]: 90%
α2C adrenergic receptors
  inhibition at 1 µM: 91%

## CC1(C)Cc2cccc(OCCN3CCC(NS(=O)(=O)c4ccc5ccccc5c4)C3)c2O1 (centres unmarked) [Compound 108, N-[1-[2-[(2,2-Dimethyl-3H-benzofuran-7-yl)oxy]ethyl]pyrrolidin-3-yl]naphthalene-2-sulphonamide]
[1]
  inhibition at 1 µM: 95%
[2]
  inhibition at 1 µM: 98%
5-HT2A receptor
  inhibition at 1 µM: 98%
5-HT7 receptor
  inhibition at 1 µM: 98%
[3]
  α1 [%]: 40%
α2C adrenergic receptors
  inhibition at 1 µM: 83%

## O=S(=O)(NCC1CN(CCCc2noc3cc(F)ccc23)C1)c1ccc2scnc2c1 [Compound 132, N-[[1-[3-(6-Fluoro-1,2-benzoxazol-3-yl)propyl]azetidin-3-yl]methyl]-1,3-benzothiazole-5-sulphonamide]
[1]
  inhibition at 1 µM: 60%
[2]
  inhibition at 1 µM: 57%
5-HT2A receptor
  inhibition at 1 µM: 97%
5-HT7 receptor
  inhibition at 1 µM: 94%
[3]
  α1 [%]: 86%
α2C adrenergic receptors
  inhibition at 1 µM: 73%

## Cc1c(S(=O)(=O)NCC2CN(CCCc3noc4cc(F)ccc34)C2)sc2ccc(Cl)cc12 [Compound 131, 5-Chloro-N-[[1-[3-(6-fluoro-1,2-benzoxazol-3-yl)propyl]azetidin-3-yl]-methyl]-3-methyl-benzothiophene-2-sulphonamide]
[1]
  inhibition at 1 µM: 94%
[2]
  inhibition at 1 µM: 87%
5-HT2A receptor
  inhibition at 1 µM: 99%
  Ki: 5.5 nM
5-HT7 receptor
  inhibition at 1 µM: 95%
[3]
  α1 [%]: 70%
α2C adrenergic receptors
  inhibition at 1 µM: 92%

## Cc1c(S(=O)(=O)NCC2CN(CCCc3noc4cc(F)ccc34)C2)sc2ccc(F)cc12 [Compound 130, 5-Fluoro-N-[[1-[3-(6-fluoro-1,2-benzoxazol-3-yl)propyl]azetidin-3-yl]methyl]-3-methyl-benzothiophene-2-sulphonamide]
[1]
  inhibition at 1 µM: 94%
[2]
  inhibition at 1 µM: 85%
5-HT2A receptor
  inhibition at 1 µM: 100%
  Ki: 4.2 nM
5-HT7 receptor
  inhibition at 1 µM: 98%
[3]
  α1 [%]: 86%
α2C adrenergic receptors
  inhibition at 1 µM: 88%
